Results taken from US9963445B2, “Chemical compounds” (SYNGENTA PARTICIPATIONS AG, priority 2013, dated 2018).

Legend:
Type in all cases: in vivo
Abutilon theophrasti [1] = experiment: Pre-emergence herbicidal activity, glasshouse pot test; settings: pre-emergence spray, rate 1000 g/ha, evaluated after 13 days, scale 0-5
How it was run: (§1)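 Test species were sown in pots and, after one day under controlled glasshouse conditions, treated with an aqueous spray of the active ingredient in acetone/water containing 0.5% Tween 20. Evaluation followed 13 days later, scoring plant damage from 0 (none) to 5 (total).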

Alopecurus myosuroides [2] = experiment: as above; settings: pre-emergence spray, rate 1000 g/ha, evaluated after 13 days, scale 0-5
How it was run: as §1

Amaranthus retroflexus [3] = experiment: as above; settings: pre-emergence spray, rate 1000 g/ha, evaluated after 13 days, scale 0-5
How it was run: as §1

Echinochloa crus-galli [4] = experiment: as above; settings: pre-emergence spray, rate 1000 g/ha, evaluated after 13 days, scale 0-5
How it was run: as §1

Setaria faberi [5] = experiment: as above; settings: pre-emergence spray, rate 1000 g/ha, evaluated after 13 days, scale 0-5
How it was run: as §1

zea mays [6] = experiment: as above; settings: pre-emergence spray, rate 1000 g/ha, evaluated after 13 days, scale 0-5
How it was run: as §1

Abutilon theophrasti [7] = experiment: Post-emergence herbicidal activity, glasshouse pot test; set-up: key: 0 = no damage to plant, 5 = total damage to plant; settings: Application post-emergence, rate 1000 g/ha, evaluated after 13 days
How it was run: (§2)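 Test solution: technical active ingredient in acetone/water (50:50) containing 0.5% Tween 20, applied as an aqueous spray to 8-day-old plants. Evaluation at 13 days, 0–5 damage scale.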

Alopecurus myosuroides [8] = experiment: as above; set-up: key: 0 = no damage to plant, 5 = total damage to plant; settings: Application post-emergence, rate 1000 g/ha, evaluated after 13 days
How it was run: as §2

Amaranthus retroflexus [9] = experiment: as above; set-up: key: 0 = no damage to plant, 5 = total damage to plant; settings: Application post-emergence, rate 1000 g/ha, evaluated after 13 days
How it was run: as §2

Echinochloa crus-galli [10] = experiment: as above; set-up: key: 0 = no damage to plant, 5 = total damage to plant; settings: Application post-emergence, rate 1000 g/ha, evaluated after 13 days
How it was run: as §2

Setaria faberi [11] = experiment: as above; set-up: key: 0 = no damage to plant, 5 = total damage to plant; settings: Application post-emergence, rate 1000 g/ha, evaluated after 13 days
How it was run: as §2

zea mays [12] = experiment: as above; set-up: key: 0 = no damage to plant, 5 = total damage to plant; settings: Application post-emergence, rate 1000 g/ha, evaluated after 13 days
How it was run: as §2

Compound | ABUTH damage score, application pre-emergence (Abutilon theophrasti [1]) | ALOMY damage score, application pre-emergence (Alopecurus myosuroides [2]) | AMARE damage score, application pre-emergence (Amaranthus retroflexus [3]) | ECHCG damage score, application pre-emergence (Echinochloa crus-galli [4]) | SETFA damage score, application pre-emergence (Setaria faberi [5]) | ZEAMX damage score, application pre-emergence (zea mays [6]) | ABUTH herbicidal damage score (Abutilon theophrasti [7]) | ALOMY herbicidal damage score (Alopecurus myosuroides [8]) | AMARE herbicidal damage score (Amaranthus retroflexus [9]) | ECHCG herbicidal damage score (Echinochloa crus-galli [10]) | SETFA herbicidal damage score (Setaria faberi [11]) | ZEAMX herbicidal damage score (zea mays [12])
COC1=C(C)C(O)N(c2ccc(C(=O)NC(C)(C)C#N)nn2)C1=O (stereo not drawn) [BI7] | 4 | 3 | 5 | 3 | 4 | 1 | 4 | 4 | 5 | 4 | 5 | 2
COC1=C(C)C(O)N(c2cc(C(F)(F)F)c(Cl)nn2)C1=O (stereo not drawn) [BI9] | 1 | 4 | 5 | 4 | 2 | 2 | 5 | 5 | 5 | 5 | 5 | 4
COC1=C(C)C(O)N(c2cc(C(C)F)c(Cl)nn2)C1=O (stereo not drawn) [BI10] | 5 | 3 | 5 | 4 | 2 | 2 | 5 | 4 | 5 | 5 | 5 | 3
COC1=C(C)C(O)N(c2cc(C(C)(C)F)c(-c3ccc(F)cc3)nn2)C1=O (stereo not drawn) [BI11] | 4 | 2 | 5 | 2 | 4 | 2 | 4 | 4 | 5 | 4 | 5 | 2
CC#Cc1nnc(N2C(=O)C(OC)=C(C)C2O)cc1C(C)(C)F (stereo not drawn) [BI12] | 4 | 2 | 5 | 4 | 5 | 3 | 5 | 4 | 5 | 5 | 5 | 4
C=C(OCC)c1nnc(N2C(=O)C(OC)=C(C)C2O)cc1C(C)(C)F (stereo not drawn) [BI13] | 5 | 4 | 5 | 5 | 5 | 2 | 5 | 5 | 5 | 5 | 5 | 2
COC1=C(C)C(O)N(c2cc(C(C)(C)F)c(Cl)nn2)C1=O (stereo not drawn) [BI14] | 3 | 3 | 5 | 4 | 5 | 3 | 5 | 5 | 5 | 5 | 5 | 4
COC1=C(C)C(O)N(c2cc(C(C)(C)F)c(C#N)nn2)C1=O (stereo not drawn) [BI15] | 5 | 4 | 5 | 5 | 5 | 2 | 5 | 4 | 5 | 5 | 5 | 2
COC1=C(C)C(O)N(c2cc(C(C)(C)F)c(C)nn2)C1=O (stereo not drawn) [BI16] | 5 | 3 | 5 | 4 | 5 | 3 | 5 | 4 | 5 | 5 | 5 | 4
COC1=C(C)C(O)N(c2cc(C(C)(F)F)c(-c3ccc(F)cc3)nn2)C1=O (stereo not drawn) [BI17] | 4 | 4 | 4 | 3 | 4 | 2 | 5 | 4 | 5 | 5 | 5 | 3
CC#Cc1nnc(N2C(=O)C(OC)=C(C)C2O)cc1C(C)(F)F (stereo not drawn) [BI18] | 4 | 3 | 4 | 3 | 3 | 1 | 5 | 3 | 5 | 5 | 4 | 2
C=C(OCC)c1nnc(N2C(=O)C(OC)=C(C)C2O)cc1C(C)(F)F (stereo not drawn) [BI19] | 5 | 3 | 5 | 5 | 3 | 2 | 5 | 4 | 5 | 5 | 4 | 3
COC1=C(C)C(O)N(c2cc(C(C)(F)F)c(-c3ccc(C)c(F)c3)nn2)C1=O (stereo not drawn) [BI20] | 0 | 2 | 3 | 1 | 1 | 1 | 5 | 2 | 5 | 3 | 4 | 1
COC1=C(C)C(O)N(c2cc(C(C)(F)F)c(-c3cccnc3)nn2)C1=O (stereo not drawn) [BI21] | 2 | 2 | 2 | 2 | 3 | 0 | 3 | 4 | 5 | 4 | 4 | 1
COC1=C(C)C(O)N(c2cc(C(C)(F)F)c(Cl)nn2)C1=O (stereo not drawn) [BI22] | 4 | 4 | 5 | 5 | 4 | 3 | 5 | 5 | 5 | 5 | 5 | 3
COC1=C(C)C(O)N(c2cc(C(C)(F)F)c(C#N)nn2)C1=O (stereo not drawn) [BI23] | 4 | 4 | 5 | 4 | 2 | 1 | 4 | 4 | 3 | 4 | 4 | 1
